Experimental data reported in ChEMBL document CHEMBL1201862, “PubChem BioAssay data set” (2004).
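Values below derive from 48-hour exposures of cells grown in 96-well plates, with endpoints linearly interpolated between the two concentrations bracketing the appropriate inhibition level. The concentration for 50% growth inhibition is given as GI50.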 Activity calls are given as the source filed them. Rule as the data show it: active = GI50 up to about 1.1 µM and inactive = higher.

What was measured:
Test in all cases: NCI tumour cell line growth inhibition, 48 h
UO-31 = tested on: UO-31
A549 = tested on: A549
U-251 = tested on: U-251
SF-295 = tested on: SF-295
HOP-62 = tested on: HOP-62
CAKI-1 = tested on: CAKI-1
CCRF-CEM = tested on: CCRF-CEM
SN12C = tested on: SN12C
SR = tested on: SR
MOLT-4 = tested on: MOLT-4
OVCAR-8 = tested on: OVCAR-8
SK-MEL-5 = tested on: SK-MEL-5
SK-MEL-2 = tested on: SK-MEL-2
DMS-114 = tested on: DMS-114
NCI-H23 = tested on: NCI-H23
ACHN = tested on: ACHN
HOP-92 = tested on: HOP-92
XF498 = tested on: XF498
HCC 2998 = tested on: HCC 2998
SF-268 = tested on: SF-268
HCT-15 = tested on: HCT-15
DMS-273 = tested on: DMS-273
SK-OV-3 = tested on: SK-OV-3
NCI-H460 = tested on: NCI-H460
OVCAR-4 = tested on: OVCAR-4
LOX IMVI = tested on: LOX IMVI
UACC-257 = tested on: UACC-257
HL-60 = tested on: HL-60
NCI-H522 = tested on: NCI-H522
KM-20L2 = tested on: KM-20L2
EKVX = tested on: EKVX
RXF 393 = tested on: RXF 393
SK-MEL-28 = tested on: SK-MEL-28
RPMI-8226 = tested on: RPMI-8226
SNB-19 = tested on: SNB-19
SF-539 = tested on: SF-539
A498 = tested on: A498
HT-29 = tested on: HT-29
SNB-75 = tested on: SNB-75
SW-620 = tested on: SW-620
DLD-1 = tested on: DLD-1
UACC-62 = tested on: UACC-62
NCI-H226 = tested on: NCI-H226
TK-10 = tested on: TK-10
M19-MEL = tested on: M19-MEL
HCT-116 = tested on: HCT-116
KM12 = tested on: KM12
IGROV-1 = tested on: IGROV-1
OVCAR-5 = tested on: OVCAR-5
COLO 205 = tested on: COLO 205
SNB-78 = tested on: SNB-78
K562 = tested on: K562
786-0 = tested on: 786-0
Malme-3M = tested on: Malme-3M
LXFL 529 = tested on: LXFL 529
M14 = tested on: M14
OVCAR-3 = tested on: OVCAR-3

Measured: GI50

N/N=C(\C(=O)Nc1c(Cl)cc([N+](=O)[O-])cc1Cl)C(c1cnc2ccc([N+](=O)[O-])cc2n1)[N+](=O)[O-] (configuration not stated)
inactive: UO-31 87.7 µM | A549 > 100 µM | U-251 > 100 µM | SF-295 > 100 µM | HOP-62 > 100 µM | CAKI-1 66.1 µM | CCRF-CEM 77.1 µM | SN12C 95.7 µM | SR > 100 µM | MOLT-4 47.6 µM | OVCAR-8 > 100 µM | SK-MEL-5 > 100 µM | SK-MEL-2 > 100 µM | DMS-114 36.3 µM | NCI-H23 > 100 µM | ACHN > 100 µM | HOP-92 > 100 µM | XF498 > 100 µM | HCC 2998 82.2 µM | SF-268 > 100 µM | DMS-273 38.6 µM | SK-OV-3 > 100 µM | NCI-H460 > 100 µM | OVCAR-4 > 100 µM | LOX IMVI > 100 µM | UACC-257 > 100 µM | HL-60 28.1 µM | NCI-H522 9.98 µM | KM-20L2 > 100 µM | EKVX 37.8 µM | RXF 393 > 100 µM | SK-MEL-28 > 100 µM | RPMI-8226 42.8 µM | SNB-19 > 100 µM | SF-539 > 100 µM | A498 > 100 µM | HT-29 > 100 µM | SNB-75 56.9 µM | SW-620 99.3 µM | DLD-1 > 100 µM | UACC-62 36.9 µM | NCI-H226 6.71 µM | TK-10 > 100 µM | M19-MEL > 100 µM | HCT-116 > 100 µM | KM12 50.1 µM | IGROV-1 > 100 µM | OVCAR-5 > 100 µM | COLO 205 > 100 µM | SNB-78 40.4 µM | K562 46.6 µM
> 100 µM: HCT-15

C=C(Cl)Cc1c(O)c2c(c(O)c1CC(=C)Cl)C(=O)c1ccccc1C2=O
inactive: 786-0 > 100 µM | A549 > 100 µM | Malme-3M > 100 µM | U-251 > 100 µM | HOP-62 > 100 µM | CAKI-1 > 100 µM | CCRF-CEM > 100 µM | SN12C > 100 µM | SR > 100 µM | MOLT-4 > 100 µM | LXFL 529 > 100 µM | OVCAR-8 > 100 µM | SK-MEL-5 > 100 µM | SK-MEL-2 > 100 µM | DMS-114 > 100 µM | ACHN > 100 µM | XF498 > 100 µM | HCC 2998 > 100 µM | DMS-273 > 100 µM | SK-OV-3 > 100 µM | OVCAR-4 > 100 µM | LOX IMVI > 100 µM | HL-60 > 100 µM | KM-20L2 > 100 µM | EKVX > 100 µM | RPMI-8226 > 100 µM | SW-620 > 100 µM | M14 > 100 µM | DLD-1 > 100 µM | UACC-62 > 100 µM | TK-10 > 100 µM | IGROV-1 > 100 µM | OVCAR-5 > 100 µM | COLO 205 > 100 µM | K562 > 100 µM
> 100 µM: HCT-15

CC(=O)NNc1nc(C)c(C(=O)NNC(=O)C(=O)Nc2c([N+](=O)[O-])ccc(C)c2C)s1
inactive: 786-0 > 100 µM | UO-31 > 100 µM | A549 > 100 µM | Malme-3M > 100 µM | U-251 > 100 µM | SF-295 > 100 µM | HOP-62 > 100 µM | CAKI-1 > 100 µM | CCRF-CEM 31 µM | SN12C > 100 µM | SR 92.3 µM | MOLT-4 43.6 µM | LXFL 529 65.2 µM | OVCAR-8 > 100 µM | SK-MEL-5 > 100 µM | SK-MEL-2 > 100 µM | DMS-114 > 100 µM | NCI-H23 > 100 µM | ACHN > 100 µM | HOP-92 > 100 µM | XF498 > 100 µM | HCC 2998 > 100 µM | SF-268 90.6 µM | DMS-273 > 100 µM | NCI-H460 > 100 µM | OVCAR-4 52.8 µM | LOX IMVI 78.3 µM | UACC-257 > 100 µM | HL-60 > 100 µM | NCI-H522 50.9 µM | KM-20L2 > 100 µM | EKVX > 100 µM | SK-MEL-28 > 100 µM | RPMI-8226 > 100 µM | SNB-19 > 100 µM | SF-539 > 100 µM | A498 31.6 µM | HT-29 > 100 µM | SW-620 76.9 µM | M14 > 100 µM | DLD-1 > 100 µM | UACC-62 > 100 µM | NCI-H226 > 100 µM | TK-10 > 100 µM | M19-MEL > 100 µM | HCT-116 > 100 µM | KM12 > 100 µM | IGROV-1 > 100 µM | OVCAR-5 > 100 µM | OVCAR-3 > 100 µM | COLO 205 > 100 µM | SNB-78 > 100 µM | K562 41.5 µM
> 100 µM: HCT-15
